Earlier results, collected in patent US20100273825A1, “SOLID PHARMACEUTICAL COMPOSITION CONTAINING SOLIFENACIN AMORPHOUS FORM” (ASTELLAS PHARMA INC., priority 2009, published 2010).

Target: M3 receptors (Homo sapiens, UniProt P20309)
Conditions: M3 in smooth muscles, gland tissues; M2 in the heart

Chain of M3 receptors (P20309 whole entry): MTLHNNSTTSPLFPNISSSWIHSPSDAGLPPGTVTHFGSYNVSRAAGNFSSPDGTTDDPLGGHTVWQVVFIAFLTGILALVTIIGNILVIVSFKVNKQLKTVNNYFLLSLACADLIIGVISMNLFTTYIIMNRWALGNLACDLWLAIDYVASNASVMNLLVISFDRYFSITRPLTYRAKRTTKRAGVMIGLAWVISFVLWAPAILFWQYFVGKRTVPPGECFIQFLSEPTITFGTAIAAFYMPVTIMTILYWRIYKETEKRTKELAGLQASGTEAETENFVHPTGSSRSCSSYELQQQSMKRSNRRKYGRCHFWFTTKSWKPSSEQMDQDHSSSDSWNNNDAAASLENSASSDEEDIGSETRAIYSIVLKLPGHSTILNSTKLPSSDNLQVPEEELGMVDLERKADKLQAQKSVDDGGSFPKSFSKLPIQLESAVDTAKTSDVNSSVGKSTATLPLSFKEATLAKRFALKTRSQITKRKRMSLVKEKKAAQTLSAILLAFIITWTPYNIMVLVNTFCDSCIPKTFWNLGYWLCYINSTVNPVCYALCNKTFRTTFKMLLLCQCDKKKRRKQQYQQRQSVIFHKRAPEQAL

O=C(O[C@H]1CN2CCC1CC2)N1CCc2ccccc2[C@@H]1c1ccccc1 [solifenacin, (R)-quinuclidin-3-yl (S)-1-phenyl-1,2,3,4-tetrahydroisoquinoline-2-carboxylate]
Selectivity for M3 receptors in comparison with M2 receptors: high selectivity
